# Test results reported in PubChem BioAssay AID1963834 (Molecular Pharmacology Branch, DTP, NCI, 2024).
# System: 873145-292-R-J1-PDC complex spheroid viability
# Assay: Anticancer human tumor 873145-292-R-J1-PDC patient-derived renal clear cell carcinoma cell line growth inhibition [POLQ]
# Settings: for IC50: curve of first compound; for viability, T/C: stronger effect = lower value
# Method in brief: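 PDC + HUVEC + MSC complex spheroids; POLQ inhibitors ± partner drugs; top conc. at/near clinical Cmax, else 10 microM (SN-38 1 microM), half-log dilutions; 37 degrees C, 5% CO2.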
# [1] = second compound 0.0316 µM, first compound 0.0316 µM
# [2] = second compound 0.0316 µM, first compound 0.1 µM
# [3] = second compound 0.0316 µM, first compound 0.316 µM
# [4] = second compound 0.0316 µM, first compound 1 µM
# [5] = second compound 0.0316 µM, first compound 3.16 µM
# [6] = second compound 0.0316 µM, first compound 10 µM
# [7] = second compound 0.1 µM, first compound 0.0316 µM
# [8] = second compound 0.1 µM, first compound 0.1 µM
# [9] = second compound 0.1 µM, first compound 0.316 µM
# [10] = second compound 0.1 µM, first compound 1 µM
# [11] = second compound 0.1 µM, first compound 3.16 µM
# [12] = second compound 0.1 µM, first compound 10 µM
# [13] = second compound 0.316 µM, first compound 0.0316 µM
# [14] = second compound 0.316 µM, first compound 0.1 µM
# [15] = second compound 0.316 µM, first compound 0.316 µM
# [16] = second compound 0.316 µM, first compound 1 µM
# [17] = second compound 0.316 µM, first compound 3.16 µM
# [18] = second compound 0.316 µM, first compound 10 µM
# [19] = second compound 1 µM, first compound 0.0316 µM
# [20] = second compound 1 µM, first compound 0.1 µM
# [21] = second compound 1 µM, first compound 0.316 µM
# [22] = second compound 1 µM, first compound 1 µM
# [23] = second compound 1 µM, first compound 3.16 µM
# [24] = second compound 1 µM, first compound 10 µM
# [25] = second compound 3.16 µM, first compound 0.0316 µM
# [26] = second compound 3.16 µM, first compound 0.1 µM
# [27] = second compound 3.16 µM, first compound 0.316 µM
# [28] = second compound 3.16 µM, first compound 1 µM
# [29] = second compound 3.16 µM, first compound 3.16 µM
# [30] = second compound 3.16 µM, first compound 10 µM
# [31] = second compound 10 µM, first compound 0.0316 µM
# [32] = second compound 10 µM, first compound 0.1 µM
# [33] = second compound 10 µM, first compound 0.316 µM
# [34] = second compound 10 µM, first compound 1 µM
# [35] = second compound 10 µM, first compound 3.16 µM
# [36] = second compound 10 µM, first compound 10 µM
# 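Further: spheroids exposed to compounds for 7 days before viability readout.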
# 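Wherever viability, T/C is given: luminescence signal used as surrogate for viable cell content; 100% = DMSO vehicle control viability.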
compound,measurement,setting,value
CCc1cc2c(N3CCc4c(cc(Cn5ccnc5)cc4-c4cn(C)nc4C(F)(F)F)C3=O)ccnc2c(OC)n1 + Cc1cccc(N(C)C(=O)C2C(O)CCN2c2nc(C)cc(C(F)(F)F)c2C#N)c1,IC50,second compound 0.0316 µM,> 10 µM
same,IC50,second compound 0.1 µM,> 10 µM
same,IC50,second compound 0.316 µM,> 10 µM
same,IC50,second compound 1 µM,> 10 µM
same,IC50,second compound 3.16 µM,> 10 µM
same,IC50,second compound 10 µM,> 10 µM
same,"viability, T/C",[1],92.1%
same,"viability, T/C",[2],114%
same,"viability, T/C",[3],100%
same,"viability, T/C",[4],94.6%
same,"viability, T/C",[5],88%
same,"viability, T/C",[6],83.2%
same,"viability, T/C",[7],99.6%
same,"viability, T/C",[8],118%
same,"viability, T/C",[9],88.9%
same,"viability, T/C",[10],95%
same,"viability, T/C",[11],91.6%
same,"viability, T/C",[12],78.4%
same,"viability, T/C",[13],105%
same,"viability, T/C",[14],101%
same,"viability, T/C",[15],82.2%
same,"viability, T/C",[16],94.6%
same,"viability, T/C",[17],94.6%
same,"viability, T/C",[18],83.7%
same,"viability, T/C",[19],90.5%
same,"viability, T/C",[20],87.3%
same,"viability, T/C",[21],91.7%
same,"viability, T/C",[22],93.4%
same,"viability, T/C",[23],89.7%
same,"viability, T/C",[24],78%
same,"viability, T/C",[25],88.2%
same,"viability, T/C",[26],104%
same,"viability, T/C",[27],85%
same,"viability, T/C",[28],91.3%
same,"viability, T/C",[29],80.1%
same,"viability, T/C",[30],90.1%
same,"viability, T/C",[31],90.1%
same,"viability, T/C",[32],97.3%
same,"viability, T/C",[33],85.3%
same,"viability, T/C",[34],84.5%
same,"viability, T/C",[35],81.2%
same,"viability, T/C",[36],90.3%
COc1cc2cc(C(=O)CCC(=O)O)sc2cc1OC + Cc1cccc(N(C)C(=O)C2C(O)CCN2c2nc(C)cc(C(F)(F)F)c2C#N)c1,IC50,second compound 0.0316 µM,> 10 µM
same,IC50,second compound 0.1 µM,> 10 µM
same,IC50,second compound 0.316 µM,> 10 µM
same,IC50,second compound 1 µM,> 10 µM
same,IC50,second compound 3.16 µM,> 10 µM
same,IC50,second compound 10 µM,> 10 µM
same,"viability, T/C",[1],103%
same,"viability, T/C",[2],106%
same,"viability, T/C",[3],111%
same,"viability, T/C",[4],105%
same,"viability, T/C",[5],101%
same,"viability, T/C",[6],104%
same,"viability, T/C",[7],97.9%
same,"viability, T/C",[8],115%
same,"viability, T/C",[9],96.9%
same,"viability, T/C",[10],92.1%
same,"viability, T/C",[11],98.8%
same,"viability, T/C",[12],107%
same,"viability, T/C",[13],98.3%
same,"viability, T/C",[14],110%
same,"viability, T/C",[15],95.1%
same,"viability, T/C",[16],96.1%
same,"viability, T/C",[17],93.5%
same,"viability, T/C",[18],97.6%
same,"viability, T/C",[19],101%
same,"viability, T/C",[20],98.7%
same,"viability, T/C",[21],94%
same,"viability, T/C",[22],100%
same,"viability, T/C",[23],95.6%
same,"viability, T/C",[24],103%
same,"viability, T/C",[25],89%
same,"viability, T/C",[26],117%
same,"viability, T/C",[27],102%
same,"viability, T/C",[28],99.4%
same,"viability, T/C",[29],98.4%
same,"viability, T/C",[30],101%
same,"viability, T/C",[31],98.2%
same,"viability, T/C",[32],95.9%
same,"viability, T/C",[33],102%
same,"viability, T/C",[34],97.7%
same,"viability, T/C",[35],104%
same,"viability, T/C",[36],103%
COc1ccc([C@@H](O)c2cc(-c3ncnc4cc(N5CCOCC5)ccc34)c(F)cc2Cl)nn1 + Cc1cccc(N(C)C(=O)C2C(O)CCN2c2nc(C)cc(C(F)(F)F)c2C#N)c1,IC50,second compound 0.0316 µM,5.23 µM
same,IC50,second compound 0.1 µM,7.85 µM
same,IC50,second compound 0.316 µM,4.08 µM
same,IC50,second compound 1 µM,6.45 µM
same,IC50,second compound 3.16 µM,4.83 µM
same,IC50,second compound 10 µM,5.89 µM
same,"viability, T/C",[1],107%
same,"viability, T/C",[2],92.1%
same,"viability, T/C",[3],81.5%
same,"viability, T/C",[4],66.6%
same,"viability, T/C",[5],56.9%
same,"viability, T/C",[6],42.5%
same,"viability, T/C",[7],105%
same,"viability, T/C",[8],95.3%
same,"viability, T/C",[9],75.9%
same,"viability, T/C",[10],73.1%
same,"viability, T/C",[11],64.7%
same,"viability, T/C",[12],44.4%
same,"viability, T/C",[13],96%
same,"viability, T/C",[14],88.5%
same,"viability, T/C",[15],76.3%
same,"viability, T/C",[16],65.2%
same,"viability, T/C",[17],55.8%
same,"viability, T/C",[18],37.5%
same,"viability, T/C",[19],112%
same,"viability, T/C",[20],88.2%
same,"viability, T/C",[21],85.6%
same,"viability, T/C",[22],72.5%
same,"viability, T/C",[23],56.1%
same,"viability, T/C",[24],45%
same,"viability, T/C",[25],93.5%
same,"viability, T/C",[26],85.1%
same,"viability, T/C",[27],91%
same,"viability, T/C",[28],71.6%
same,"viability, T/C",[29],57.4%
same,"viability, T/C",[30],39.2%
same,"viability, T/C",[31],96.8%
same,"viability, T/C",[32],82.1%
same,"viability, T/C",[33],80.2%
same,"viability, T/C",[34],71.2%
same,"viability, T/C",[35],58.1%
same,"viability, T/C",[36],42.4%
O=C(Nc1ccc(O)c(NS(=O)(=O)c2ccc(F)cc2)c1)c1ccc(-c2ccccc2)cc1 + Cc1cccc(N(C)C(=O)C2C(O)CCN2c2nc(C)cc(C(F)(F)F)c2C#N)c1,IC50,second compound 0.0316 µM,> 10 µM
same,IC50,second compound 0.1 µM,> 10 µM
same,IC50,second compound 0.316 µM,> 10 µM
same,IC50,second compound 1 µM,> 10 µM
same,IC50,second compound 3.16 µM,> 10 µM
same,IC50,second compound 10 µM,> 10 µM
same,"viability, T/C",[1],110%
same,"viability, T/C",[2],98.5%
same,"viability, T/C",[3],105%
same,"viability, T/C",[4],91.6%
same,"viability, T/C",[5],95%
same,"viability, T/C",[6],110%
same,"viability, T/C",[7],107%
same,"viability, T/C",[8],112%
same,"viability, T/C",[9],91.7%
same,"viability, T/C",[10],96%
same,"viability, T/C",[11],105%
same,"viability, T/C",[12],88.6%
same,"viability, T/C",[13],106%
same,"viability, T/C",[14],103%
same,"viability, T/C",[15],91.3%
same,"viability, T/C",[16],92.8%
same,"viability, T/C",[17],112%
same,"viability, T/C",[18],102%
same,"viability, T/C",[19],106%
same,"viability, T/C",[20],109%
same,"viability, T/C",[21],111%
same,"viability, T/C",[22],93.2%
same,"viability, T/C",[23],103%
same,"viability, T/C",[24],104%
same,"viability, T/C",[25],94.9%
same,"viability, T/C",[26],105%
same,"viability, T/C",[27],104%
same,"viability, T/C",[28],99.3%
same,"viability, T/C",[29],99.3%
same,"viability, T/C",[30],95.5%
same,"viability, T/C",[31],96.9%
same,"viability, T/C",[32],107%
same,"viability, T/C",[33],100%
same,"viability, T/C",[34],93.9%
same,"viability, T/C",[35],111%
same,"viability, T/C",[36],102%
